Assay results taken from PubChem BioAssay (NCI).
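A five-concentration, 48-hour dose response in 96-well plates underlies each endpoint, interpolated linearly between surrounding concentrations. GI50: concentration for 50% inhibition of growth. At the TGI there is no net growth.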

Columns and labels:
Experiment in all cases: NCI-60 cell line screen, 48 h
SF-295 CNS = system: SF-295 CNS
HOP-92 NSCLC = system: HOP-92 NSCLC
CAKI-1 renal = system: CAKI-1 renal
EKVX NSCLC = system: EKVX NSCLC
A549 NSCLC = system: A549 NSCLC
RPMI-8226 leukemia = system: RPMI-8226 leukemia
NCI-H23 lung = system: NCI-H23 lung
NCI-H460 lung = system: NCI-H460 lung
UO-31 renal = system: UO-31 renal
OVCAR-5 ovarian = system: OVCAR-5 ovarian

| Compound | TGI (SF-295 CNS) [µM] | TGI (HOP-92 NSCLC) [µM] | TGI (CAKI-1 renal) [µM] | TGI (EKVX NSCLC) [µM] | TGI (A549 NSCLC) [µM] | TGI (RPMI-8226 leukemia) [µM] | TGI (NCI-H23 lung) [µM] | TGI (NCI-H460 lung) [µM] | TGI (UO-31 renal) [µM] | TGI (OVCAR-5 ovarian) [µM] | GI50 (SF-295 CNS) [µM] | GI50 (HOP-92 NSCLC) [µM] | GI50 (CAKI-1 renal) [µM] | GI50 (EKVX NSCLC) [µM] | GI50 (A549 NSCLC) [µM] | GI50 (RPMI-8226 leukemia) [µM] | GI50 (NCI-H23 lung) [µM] | GI50 (NCI-H460 lung) [µM] | GI50 (UO-31 renal) [µM] | GI50 (OVCAR-5 ovarian) [µM] |
| --- | --- | --- | --- | --- | --- | --- | --- | --- | --- | --- | --- | --- | --- | --- | --- | --- | --- | --- | --- | --- |
| O=C(Nc1ccc(Cl)cc1Cl)C(=O)C(C(=O)c1ccc2ccccc2c1)C1OC(=O)c2ccccc21 (stereo not given) | 19.7 | 8.92 | 83 | 35.9 | 73.6 | > 100 | 13.1 | 17.3 | 27 | 19.6 | – | – | – | – | – | – | – | – | – | – |
| COc1ccc2c(c1)/C(=C\c1cccnc1)C(=O)N2 | 60.4 | 69.7 | 9.05 | 25.2 | 56.7 | 76.7 | 35 | 62.4 | > 100 | 78.5 | 13.4 | 26.6 | 3.68 | 3.79 | 18.2 | 18.6 | 16.6 | 19.2 | 25.9 | 24.3 |
| CN1CCN(c2ccc(NC(=O)c3nc4ccc5[nH]ncc5c4c4c3CCCC4)cc2C(F)(F)F)CC1 | 4.16 | 1.34 | 7.72 | 8.62 | 3.05 | 2.3 | 6.71 | 1.83 | 1.65 | 8.39 | 1.39 | 0.658 | 1.52 | 1.44 | 1.12 | 0.966 | 1.5 | 0.956 | 0.843 | 1.5 |
| CCCNCCCC(NC(C)=O)C(=O)NCc1ccccc1 (stereo not given) | > 100 | > 100 | > 100 | > 100 | > 100 | > 100 | > 100 | > 100 | > 100 | > 100 | – | – | – | – | – | – | – | – | – | – |
| O=C(c1ccc(Cl)cc1)c1ccc(OCCCCCCCCCCOc2ccc(C(=O)c3ccc(Cl)cc3)cc2)cc1 | > 100 | > 100 | > 100 | > 100 | > 100 | > 100 | > 100 | > 100 | > 100 | > 100 | – | – | – | – | – | – | – | – | – | – |
| O=C1C=C(NCCNC(=S)Nc2ccccc2)c2nccc3c2c1nc1ccccc13 | > 100 | > 100 | > 100 | > 100 | > 100 | > 100 | > 100 | > 100 | > 100 | > 100 | 39.7 | > 100 | 33.6 | > 100 | 44.7 | 74.6 | 31.5 | 29.4 | > 100 | > 100 |
| COc1ccccc1/C=C1\CCC(CCN(C)C)(C2=CCCC2)C1=O (stereo not given) | 31.7 | 46.6 | 57.2 | 18.6 | 64.4 | 41.3 | > 100 | 31.4 | 31.4 | 82.5 | – | – | – | – | – | – | – | – | – | – |
| C=C1SC(=Nc2c(C)cc(C)cc2C)N(C(=O)c2sc3ccccc3c2Cl)C12CCCCC2 | > 100 | > 100 | > 100 | > 100 | > 100 | > 100 | > 100 | > 100 | > 100 | > 100 | 42.3 | 39.1 | 10.7 | 38.6 | > 100 | 21.6 | 37.4 | > 100 | 63.8 | > 100 |
| CC1(C)CC[C@H](Nc2ncc(C(F)(F)F)c(-c3c[nH]c4c(P(C)(C)=O)c(C#N)ccc34)n2)CN1 | 13.5 | 28.8 | > 37.6 | 9.27 | 35.4 | 3.43 | 3.44 | 11.5 | 5.11 | > 37.7 | 0.0267 | 0.345 | 0.0361 | < 0.0113 | 0.184 | < 0.01 | < 0.01 | < 0.01 | 0.377 | 0.144 |
| COc1ccc(-c2oc3c(OC)c(OC)c(OC)c(O)c3c(=O)c2OC)cc1OC | > 76.5 | 18.4 | > 100 | > 100 | > 100 | 59.3 | > 83.8 | > 83.7 | > 78.7 | > 100 | – | – | – | – | – | – | – | – | – | – |
| Oc1cc(O)c(Oc2cccc(O)c2O)c(O)c1 | > 100 | > 100 | > 100 | > 100 | > 100 | > 100 | > 100 | > 100 | > 100 | > 100 | – | – | – | – | – | – | – | – | – | – |
| COc1cc(/C=C\c2ccccc2)cc(OC)c1OC | 7.21 | 21.8 | > 100 | > 84.9 | > 80.3 | 46.2 | 19.5 | 27.3 | 30 | 47.3 | – | – | – | – | – | – | – | – | – | – |
| O=C([CH-]C(=O)c1ccccc1)c1ccccc1.O=C([CH-]C(=O)c1ccccc1)c1ccccc1.O=C([CH-]C(=O)c1ccccc1)c1ccccc1.[Nd+3].[OH3+] | 13.5 | 25.5 | 20.8 | 13.9 | 31.8 | 26.4 | 13.3 | > 100 | 8.19 | > 100 | 2.07 | 8.29 | 5.34 | 2.8 | 8.41 | 3.47 | 2.97 | 3.41 | 2.85 | 39.5 |
| CSC(CC(=O)O)C(=O)O (stereo not given) | > 100 | > 100 | > 100 | > 100 | > 100 | > 100 | > 100 | > 100 | > 100 | > 100 | – | – | – | – | – | – | – | – | – | – |
| COC1=CC(=O)C2C(C1=O)[C@@H]1c3ccccc3C[C@H]21 (stereo not given in full) | > 100 | > 100 | > 100 | > 100 | > 100 | > 100 | > 100 | > 100 | > 100 | > 100 | – | – | – | – | – | – | – | – | – | – |
| CC1CC2CC(=O)CC3(C1)C2CCCN3CCCO (stereo not given) | > 100 | > 100 | > 100 | > 100 | > 100 | > 100 | > 100 | > 100 | > 100 | > 100 | – | – | – | – | – | – | – | – | – | – |
